In data set [1] the test system is loblolly pine lines LP1 and LP3. In words: Effect of galactose and galactose-containing sugars during proliferation and prematuration on SE yield. In kind it is cell-based, Pinus taeda (loblolly pine). Details: Amount of tissue at the end of the preculture II stage: unit not given here. Conditions: for # SE/g FW / Amount of tissue at the end of the preculture II stage: 1% sucrose, 1.5% maltose, 1.5% lactose or 0.75% galactose. On the procedure: The finding that loblolly pine cultures were capable of utilising galactose is unique. In order to further investigate these phenomenon two lines, LP1 and LP3, were cultured on semi-solid TX medium containing 1.0% lactose and 0.5% sucrose. Cultures were maintained by subculturing the embryogenic tissue every 10 to 14 days to fresh media. All cultures were incubated at 23° C. in the dark. Suspension cultures were initiated as described in Example 3, however, TX medium was supplemented with either 1% sucrose, 1.5% maltose, 1.5% lactose, or 0.75% galactose. These cultures were maintained in liquid media for 4 weeks by weekly transfers to fresh maintenance or prematuration media. After the 4˜week period, 1 ml of the liquid medium containing 0.1 g of tissue consisting of early stage somatic embryos was plated on each […] plates containing ½ LV maturation medium. This medium contained 120 μM ABA and 6.0% sucrose and 1% Phytagel. Eight to ten weeks later, mature somatic embryos were counted and treatments were evaluated based on the number of somatic embryos per gram fresh weight (Table 5).

The subject of data set [2] is radiata pine megagametophytes containing immature zygotic embryos. In words: Effect of carbon source on induction of radiata pine. The format is cell-based, Pinus radiata (radiata pine). As for the experimental part: Female gametophytes containing immature zygotic embryos were used as explants. The cones were surface sterilised in 10% bleach solution for 15 min. They were rinsed 3 times with sterile water, air dried and stored in polyethylene bags at 4° C. until used. Seeds were sterilised in 3% hydrogen peroxide containing 0.1% Tween 20 and rinsed in sterile deionized water. Megagametophytes containing the immature embryos were plated on MSG (standard radiata pine medium containing sucrose, Table B) and on TX medium (Table A) supplemented with 2.2 mg/l 2,4-D, 1 mg/l BA and 0.3% Phytagel and containing 1.5% galactose and 0.5% sucrose. Casein hydrolysate was reduced to 1000 mg/l (TXR medium).
Cultures were maintained on the two media by subculturing the embryogenic tissue every 10 to 14 days to fresh media. All cultures were incubated at 23° C. in the dark. Suspension cultures were initiated as 2 g of tissue were introduced to 50 ml of TXR liquid medium containing 1.0% sucrose. […]
One ml of TXR medium containing 0.1 g tissue consisting of early stage somatic embryos was plated on modified ½ LV maturation medium (Table C) in which glutamine was reduced to 500 mg/l and casein hydrolysate to 1000 mg/l. […] Twelve to fourteen weeks later, mature somatic embryos were counted and treatments were evaluated based on the number of somatic embryos per gram fresh weight.

The test system of data set [3] is radiata pine lines RP1, RP2, RP3, and RP4. In words: Effect of carbon source on somatic embryo development of radiata pine in liquid cultures. The format is cell-based, Pinus radiata (radiata pine). Conditions: for # SE/g FW ± sd / Grams FW at the end of proliferation stage (from 1.5 g): 1.0% sucrose or 3.0% galactose in TXR prematuration media I and II; for tissue morphology: tissue induced and maintained on MSG sucrose or TXR galactose. From the text: Tissue induced on MSG containing sucrose was further maintained on MSG sucrose medium, and tissue induced on TXR galactose was maintained on TXR medium containing galactose as described in Example 6. The tissue morphology of the lines induced on galactose was different from that induced on sucrose. […] The lines used in this study were RP1, RP2, RP3, and RP4.
Suspension cultures were initiated as described in Example 6. These cultures were maintained in liquid media for 20-28 days by transfers to fresh maintenance medium every 10 to 14 days. Up to five fold increase of the tissue was estimated at the end of each 10 to 14 day transfer.
In order to study the effect of galactose on embryo development after the proliferation stage, 2 g tissue was further transferred to 250 ml flasks, containing 50 ml of TXR prematuration medium I supplemented with either 1.0% sucrose or 3.0% galactose. As with loblolly pine cultures, prematuration I requires reduction of hormones either by reducing the auxin and cytokinin concentrations to optimally about 1/20 of the concentration of proliferation step, or by adding charcoal at about 0.01 to 1%, or a combination of both.
After the 10-14 day period, 1.5 g tissue was transferred to 250 ml flasks containing 50 ml TXR prematuration medium II to which either 1.0% sucrose or 3.0% galactose and 90 μM ABA were added.
Early stage somatic embryos were collected after 10 to 14 days and matured on modified ½ LV maturation medium as described in Example 6.

Data set [4] has as its system Douglas fir embryogenic tissue, cell line DF-2. In words: Effects of carbohydrates on liquid maintenance of Douglas fir embryogenic tissue. The format is cell-based, Pseudotsuga menziesii (Douglas fir). Conditions: 3 weeks suspension maintenance/bulking-up, 0.5% galactose, 1% lactose, 0.5% mannitol. On the procedure:
The culture medium for Douglas fir was TX medium (see Table A) with the following additives: glutamine 100 mg., Casein hydrolysate 100 mg., and pH 5.8. The following compounds were added into the basal medium for Douglas fir somatic embryo development at different stages: • 1) Induction medium: 18 μM 2,4-D and 9 μM BA, phytagel 0.28%, sucrose 1% • 2) Solid maintenance medium: 9 μM 2,4-D and 4.5 μM BA, phytagel 0.28%, sucrose 1%. • 3) Liquid maintenance and bulking-up medium: 9 μM 2,4-D and 4.5 μM BA, different carbon sources for experiments. • 4) Liquid pre-treatment medium: 20 (first week) or 30 μM ABA (second week), 10% PEG4000 (first week) or PEG1500 (second week), different carbon sources as described in examples below. • 5) Solid maturation media: TX (Table A) plus 0.02% NH4NO3 • Medium I. 40 μM ABA, 10% PEG 1500, maltose 2.5%, phytagel 0.6% • Medium II. 60 μM ABA, 10% PEG1500, maltose 2.5% and sucrose 1%, phytagel 0.8% • Medium III. 70 μM ABA, 6% PEG1500, sucrose 6%, phytagel 1%.
Embryogenic tissue was induced from immature zygotic embryos. The cones and seeds were surface-sterilised as described for pines, and embryos were dissected out from megagametophytes. The embryos, with the attachment of suspensors to their megagametophytes, were placed on the surface of induction medium. The culture was kept in darkness at 23° C. Embryogenic tissue was sub-cultured once every two weeks onto solid maintenance medium.
Embryogenic tissue of Douglas fir was collected from solid maintenance culture and one gram of tissue was transferred into a 200 ml flask containing 50 ml TX (see Table A) liquid maintenance medium. The liquid maintenance medium was supplied with different sugars (Table 8).
The tissue was drained, weighed and sub-cultured once per week. During a culture period of three weeks, the highest tissue growth was found in the culture with glucose as the major carbon source. The media containing sucrose, maltose and galactose also supported a fast tissue growth. With these latter sugars, tissue increased to 68 to 100 fold in three weeks. Tissue grew little in the media containing lactose or mannitol. […] Similar results were obtained within two cell lines, DF-7A and DF-2.

Data set [5] relates to Douglas fir embryogenic tissue. In words: Medium osmolarity before and after one-week tissue inoculation. The format is cell-based, Pseudotsuga menziesii (Douglas fir). The note with it: medium with 0.5% galactose, 1% lactose, 0.5% mannitol or 0.5% glucose. From the text:
More change of medium osmolarity occurred during week 2 than week 1. The medium osmolarity changed little when lactose or mannitol was used in the media.

The test system of data set [6] is Suspension cultures of loblolly lines LP1, LP2, LP3, LP4 and LP5. In words: Effect of carbon source on liquid maintenance: growth rate and yield of somatic embryos. In kind it is cell-based, Pinus taeda (loblolly pine). Conditions: 1% sucrose; for # SE/g FW ± sd: 1.5% maltose or 1.5% lactose for 4 weeks in liquid, then 8-10 weeks on 1/2 LV maturation medium; for Average amount of tissue produced after 4 weeks in liquid (FW g): 1.5% maltose or 1.5% lactose in maintenance and prematuration I and II, started with 2 g. As for the experimental part: Suspension cultures of loblolly lines LP1, LP2, LP3, LP4 and LP5 were started with 2 g of tissue introduced to 50 ml of TX liquid medium containing different sugars—1% sucrose, 1.5% maltose, or 1.5% lactose. These cultures were maintained in the same liquid media for 2 weeks by weekly transfers to fresh maintenance medium containing the above sugars. Then, 2 g of tissue produced in each maintenance medium was transferred to prematuration media I, containing the same carbon source as the maintenance media. After one week, 1.5 g of tissue from each prematuration medium I was transferred to prematuration media II containing the same sugars. After the 4 week period in liquid media, early stage somatic embryos were collected and plated on ½ LV maturation medium containing 120 μM ABA and 6.0% sucrose and 1% Phytagel. Eight to ten weeks later, mature somatic embryos were counted and treatments were evaluated based on the number of somatic embryos per gram fresh weight (SE/g FW). Table 2 summarises the tissue yield at the end of the 4-week period and the number of mature somatic embryos produced for each line.

Data set [7] concerns loblolly pine embryogenic tissue. In words: Effect of carbon source on solid maintenance of loblolly pine. In kind it is cell-based, Pinus taeda (loblolly pine). The note with it: semi-solid TX medium; 1% sucrose, or 1.5% lactose and 0.025% glucose. As for the experimental part: Tissue induced on sucrose from Example 1 was further maintained on the semi-solid TX medium containing 1% sucrose, and tissue induced on lactose was maintained on semi-solid TX medium containing 1.5% lactose and 0.025% glucose. The tissue morphology of the lines induced on lactose was different from the ones induced on sucrose. […] In order to further increase the proliferation rate, 0.5% sucrose was added to the TX 1.5% lactose-containing medium in place of 0.025% glucose. This medium provided a reasonable bulk-up rate, and growth of embryos was more synchronized than in the 1% sucrose medium.

[8] abbreviates: additional glucose 0%, 0.5% glucose, 1% sucrose, 1% maltose.

For the compound `O=C[C@H](O)[C@@H](O)[C@@H](O)[C@H](O)CO` [Galactose], in data set [1] (line LP1), the “# SE/g FW” value worked out at 216 ± 8 SE/g FW and the “Amount of tissue at the end of the preculture II stage” value (shortened to “Amount … of the preculture II stage”) is 59.45. Also, in data set [1] (line LP3), the “# SE/g FW” value came to 172 ± 5 SE/g FW and the “Amount … of the preculture II stage” value amounted to 8.65. In addition, the “Induction success, galactose compared with sucrose medium” value in data set [2] (galactose as carbon source) is given as “greater than three times higher”. For the same compound, in data set [2] (tissues induced on galactose), the “subsequent yields of mature embryos, galactose compared with sucrose medium” value is recorded as “almost double”. For the same compound, in data set [3], the “# SE/g FW ± sd” value is 405.3 ± 10 SE/g FW; the “Grams FW at the end of proliferation stage (from 1.5 g)” value came out at 9.5 ± 2 g; the tissue morphology entry was “more early stage immature embryos and a limited amount of suspensor type of surrounding tissue”. Moreover, in data set [3] (galactose as carbon source), the Tissue growth increase entry was “more than 5 times” and the “number of mature somatic embryos at the end of maturation” value is on record as “doubled”. Moreover, the “Tissue growth (fold, mean ± SD)” value in data set [4] (setting [8]) stood at 68.64 ± 4.58 fold. In addition, in data set [4] (additional glucose 0.025%), the “Tissue growth (fold, mean ± SD)” value is listed as 97.02 ± 2.67 fold. In data set [5], the “Osmolarity before inoculation (mmol/kg, mean ± SD)” value came out at 71.67 ± 1.15 mmol/kg.

Turning to `OC[C@H]1O[C@H](O[C@H]2[C@H](O)[C@@H](O)[C@H](O)O[C@@H]2CO)[C@H](O)[C@@H](O)[C@@H]1O` [Maltose, maltose], in data set [6], the “# SE/g FW ± sd” value was 209 ± 28 SE/g FW and the “Average amount of tissue produced after 4 weeks in liquid (FW g)” value amounted to 204.45 g. Moreover, in data set [1] (line LP1), the “# SE/g FW” value was 106 ± 4 SE/g FW and the “Amount … of the preculture II stage” value is recorded as 232.18. Moreover, in data set [1] (line LP3), the “# SE/g FW” value amounted to 160 ± 5 SE/g FW and the “Amount … of the preculture II stage” value is reported as 118.22. The “Tissue growth (fold, mean ± SD)” value in data set [4] (setting [8]) is reported as 85.01 ± 1.71 fold.

Consider `OC[C@H]1O[C@@](CO)(O[C@H]2O[C@H](CO)[C@@H](O)[C@H](O)[C@H]2O)[C@@H](O)[C@@H]1O` [Sucrose, sucrose], for which the tissue morphology entry in data set [7] was “Predominantly suspensor type tissue and very few embryos”. In data set [6], the “# SE/g FW ± sd” value is given as 126 ± 20 SE/g FW and the “Average amount of tissue produced after 4 weeks in liquid (FW g)” value was found to be 592.06 g. In data set [1] (line LP1, as stated in the text), the embryos produced is listed as 11 embryos. Besides, in data set [1] (line LP1), the “# SE/g FW” value came to 11 ± 3 SE/g FW and the “Amount … of the preculture II stage” value came out at 121.22. Also, the “amount of tissue at the end of the 4 week-liquid period” value in data set [1] (line LP3, sucrose as sole carbon source) came out at 1278.18 g. In data set [1] (line LP3), the “# SE/g FW” value was 100 ± 6 SE/g FW and the “Amount … of the preculture II stage” value came out at 1278.18. For the same compound, in data set [3], the “# SE/g FW ± sd” value is given as 213.3 ± 6 SE/g FW; the “Grams FW at the end of proliferation stage (from 1.5 g)” value is given as 11.05 ± 2 g; the tissue morphology entry was “predominantly suspensor type tissue and very few embryos”. Besides, the “Tissue growth (fold, mean ± SD)” value in data set [4] (setting [8]) stood at 100.94 ± 12.0 fold.

As to `OC[C@@H](O)[C@@H](O)[C@H](O)[C@H](O)CO` [mannitol, reference compound], the “Tissue growth (fold, mean ± SD)” value was determined as 1.60 ± 0.13 fold in data set [4] (setting [8]) and 3.34 ± 0.22 fold in data set [4] (additional glucose 0.025%). Further, the “Osmolarity before inoculation (mmol/kg, mean ± SD)” value in data set [5] is recorded as 76 ± 1 mmol/kg.

These data come from US7906334B2, “Method for reproducing conifers by somatic embryogenesis using lactose as a carbon source” (Cellfor Inc., priority 2003, dated 2011).
